Experimental data from patent US20240150423A1, “GLP-1 ANALOGUE-MODIFIED DIMERS WITH DIFFERENT CONFIGURATIONS, PREPARATION METHOD THEREOF, AND APPLICATION THEREOF IN TREATMENT OF TYPE II DIABETES” (Nanjing Finepeptide Biopharmaceutical Co.,Ltd, priority 2019, published 2024).
Non-standard residues stand in square brackets, D forms with d. No end group written: not given here. βAla = NCCC(=O)O

Each substance was assayed on Normal Kunming (KM) mice (assay: multiple OGTT (mOGTT): hypoglycemic duration after a single administration). Settings: monomeric peptides, single injection at the same dose (1.126 nmol), subcutaneous.
Assay type: in vivo
Procedure, shortened: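 Tail blood glucose was followed by meter in normal KM mice after one dosing and glucose gavage, at 0, 10, 20, 40, 60 and 120 min. Measurement stopped when the treated mean rose above the NaCl group twice; the period before that is the effective duration.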

“His-βAla-Glu-Gly-Thr-Phe-Thr-Ser-Asp-Val-Cys-Ser-Tyr-Leu-Glu-Gly-Gln-Ala-Ala-Lys[N-ϵ-(N-α-oleoyl)]-Glu-Phe-Ile-Ala-Trp-Leu-Val-Arg-Gly-Arg-Gly-NH2 (HXEGTFTSDVCSYLEGQAAXEFIAWLVRGRG; β-amino acid; oleoyl on Lys; C-terminal amide; Sequence is synthesized; (2)..(2) Xaa is bAla; (20)..(20) Xaa is 26Lys[N-e-(N-a-oleoyl-L-g-glutamyl)]; (31)..(31) N-terminal) [G4 series 31]” and “His-βAla-Glu-Gly-Thr-Phe-Thr-Ser-Asp-Val-Cys-Ser-Tyr-Leu-Glu-Gly-Gln-Ala-Ala-Lys[N-ϵ-(N-α-oleoyl-L-γ-glutamyl)]-Glu-Phe-Ile-Ala-Trp-Leu-Val-Arg-Gly-Arg-Gly-NH2 (HXEGTFTSDVCSYLEGQAAXEFIAWLVRGRG; β-amino acid; oleoyl-γ-glutamyl on Lys; C-terminal amide; Sequence is synthesized; (2)..(2) Xaa is bAla; (20)..(20) Xaa is 26Lys[N-e-(N-a-oleoyl-L-g-glutamyl)]; (31)..(31) N-terminal) [G2 series 18]” are the same in “Hypoglycemic” value: 5 days for the first, 5 days for the second.

“His-βAla-Glu-Gly-Thr-Phe-Thr-Ser-Asp-Val-Ser-Cys-Tyr-Leu-Glu-Gly-Gln-Ala-Ala-Lys-Glu-Phe-Ile-Ala-Trp-Leu-Val-Arg-βAla-Arg-NH2 (H[βAla]EGTFTSDVSCYLEGQAAKEFIAWLVR[βAla]R-NH2; also: disulfide-linked homodimer via Cys12) [G7 series 55]” and “His-βAla-Glu-Gly-Thr-Phe-Thr-Ser-Asp-Val-Ser-Cys-Tyr-Leu-Glu-Gly-Gln-Ala-Ala-Lys[N-ϵ-(N-α-Palmitoyl-L-γ-glutamyl)]-Glu-Phe-Ile-Ala-Trp-Leu-Val-Lys[N-ϵ-(N-α-Palmitoyl-L-γ-glutamyl)]-Gly-Arg-Gly-NH2 (HXEGTFTSDVSCYLEGQAAXEFIAWLVXGRG; not fully specified; beta-amino acid; two palmitoyl-gamma-Glu on Lys; amide; Sequence is synthesized; (2)..(2) Xaa is bAla; (20)..(20) Xaa is 26Lys[N-e-(N-a-palmitoyl-L-g-glutamyl)]; (28)..(28) Xaa is 26Lys[N-e-(N-a-palmitoyl-L-g-glutamyl)]; (31)..(31) N-terminal) [G5 series 44]” are the same in “Hypoglycemic” value: 2 days for the first, 2 days for the second.

Compared with “His-βAla-Glu-Gly-Thr-Phe-Thr-Ser-Asp-Val-Ser-Cys-Tyr-Leu-Glu-Gly-Gln-Ala-Ala-Lys[N-ϵ-(N-α-oleoyl)]-Glu-Phe-Ile-Ala-Trp-Leu-Val-Arg-Gly-Arg-Gly-NH2 (HXEGTFTSDVSCYLEGQAAXEFIAWLVRGRG; beta-amino acid; oleoyl on Lys side chain; C-terminal amide; Sequence is synthesized; (2)..(2) Xaa is bAla; (20)..(20) Xaa is 26Lys[N-e-(N-a-oleoyl-L-g-glutamyl)]; (31)..(31) N-terminal) [G4 series 39]”, “His-βAla-Glu-Gly-Thr-Phe-Thr-Ser-Asp-Val-Ser-Cys-Tyr-Leu-Glu-Gly-Gln-Ala-Ala-Lys[N-ϵ-(N-α-oleoyl-L-γ-glutamy)]-Glu-Phe-Ile-Ala-Trp-Leu-Val-Arg-Gly-Arg-Gly-NH2 (HXEGTFTSDVSCYLEGQAAXEFIAWLVRGRG; beta-amino acid; oleoyl-gamma-Glu on Lys; C-terminal amide; Sequence is synthesized; (2)..(2) Xaa is bAla; (20)..(20) Xaa is 26Lys[N-e-(N-a-oleoyl-L-g-glutamyl)]; (31)..(31) N-terminal) [G6 series 50]” is lower in “Hypoglycemic” value: 5 days for the first, 4 days for the second.
